In article PMC12888861, “Antibacterial activity of enmetazobactam against Acinetobacter spp.: a molecular dissection of mechanism of action and resistance determinants” (Antimicrobial Agents and Chemotherapy, 2025):
Values after ≈ are worked out from the molar mass of the structure shown. Like-named read-outs stand apart in the source and are kept apart here.

Key:
[1] = test system: A. non-baumannii isolates (n = 87); assay: MIC, broth microdilution (EUCAST), A. non-baumannii isolates; assay type: cell-based, Acinetobacter spp. (non-baumannii); settings: for MIC: read-out: MIC
How it was run: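 Broth microdilution per EUCAST v.15 guidelines on clinical Acinetobacter isolates from a Spanish 2020 multicenter collection; enmetazobactam also tested alone. A. baumannii ATCC 19606 served as reference strain, in duplicate assays.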

[2] = test system: A. baumannii ATCC 19606 cells; assay: Cell morphology assay, bright-field microscopy; assay type: cell-based, Acinetobacter baumannii; settings: A. baumannii ATCC 19606, overnight exposure at 1× MIC
Protocol: In order to confirm the involvement of PBPs as targets of enmetazobactam, cell morphology assays involving exposure to enmetazobactam and sulbactam were performed following the methodology described in Supplementary materials and methods.
To confirm the involvement of PBPs as targets of enmetazobactam, the cellular morphology of A. baumannii ATCC 19606 reference strain was analyzed after exposure to the compound at different concentrations. Bright-field microscopy was used to monitor the cell morphology. […] For microscopic visualization, aliquots of each sample were obtained, stained with crystal violet solution and observed using an Olympus BX61 microscope (Olympus).
Changes in cell morphology were determined on the basis of alterations in septal integrity, abnormal elongation, spheroplast formation and filamentation, patterns previously associated with the selective inhibition of PBP1, PBP2 and PBP3 in Gram-negative bacilli. Specifically, PBP1 inhibition has been linked to cell lysis, PBP2 inhibition has been linked to spherification, and PBP3 inhibition to defective cell division and filament formation (1, 2). The results were qualitatively compared across different treatments to infer the potential selectivity of enmetazobactam for specific PBPs.

[3] = Acinetobacter, A. non-baumannii isolates (n=87), ETZ fixed 8 mg/L in combinations

Structure (SMILES): CC1(C)[C@H](C(=O)O)N2C(=O)C[C@H]2S1(=O)=O [sulbactam]
- MIC ([1]; Acinetobacter pittii, MBC set, isolate NO-Ab89, A. pittii): 0.5 µg/mL (≈ 2.14 µM)
- MIC ([1]; Acinetobacter pittii, isolate NO-Ab59, Acinetobacter pittii, in combinations ETZ fixed at 8 mg/L): 1 µg/mL
- MIC ([1]; Acinetobacter pittii, isolate NO-Ab66, Acinetobacter pittii, in combinations ETZ fixed at 8 mg/L): 1 µg/mL
- MIC ([1]; Acinetobacter pittii, isolate NO-Ab73, Acinetobacter pittii, in combinations ETZ fixed at 8 mg/L): 0.5 µg/mL
- MIC ([1]; Acinetobacter pittii, isolate NO-Ab75, Acinetobacter pittii, in combinations ETZ fixed at 8 mg/L): 1 µg/mL
- MIC ([1]; Acinetobacter pittii, isolate NO-Ab78, Acinetobacter pittii, in combinations ETZ fixed at 8 mg/L): 0.5 µg/mL
- MIC ([1]; Acinetobacter pittii, isolate NO-Ab82, Acinetobacter pittii, in combinations ETZ fixed at 8 mg/L): 0.5 µg/mL
- MIC ([1]; Acinetobacter pittii, isolate NO-Ab89, Acinetobacter pittii, in combinations ETZ fixed at 8 mg/L): 0.5 µg/mL
- MIC ([1]; Acinetobacter pittii, isolate NO-Ab90, Acinetobacter pittii, in combinations ETZ fixed at 8 mg/L): 0.5 µg/mL
- MIC ([1]; Acinetobacter pittii, isolate NO-Ab97, Acinetobacter pittii, in combinations ETZ fixed at 8 mg/L): 1 µg/mL
- MIC ([1]; Acinetobacter pittii, isolate NO-Ab105, Acinetobacter pittii, in combinations ETZ fixed at 8 mg/L): 1 µg/mL
- MIC ([1]; Acinetobacter pittii, isolate NO-Ab106, Acinetobacter pittii, in combinations ETZ fixed at 8 mg/L): 0.5 µg/mL
- MIC ([1]; Acinetobacter pittii, isolate NO-Ab107, Acinetobacter pittii, in combinations ETZ fixed at 8 mg/L): 0.5 µg/mL
- MIC ([1]; Acinetobacter pittii, isolate NO-Ab111, Acinetobacter pittii, in combinations ETZ fixed at 8 mg/L): 1 µg/mL
- MIC ([1]; Acinetobacter pittii, isolate NO-Ab113, Acinetobacter pittii, in combinations ETZ fixed at 8 mg/L): 1 µg/mL
- MIC ([1]; Acinetobacter pittii, isolate NO-Ab118, Acinetobacter pittii, in combinations ETZ fixed at 8 mg/L): 2 µg/mL
- MIC ([1]; Acinetobacter pittii, isolate NO-Ab135, Acinetobacter pittii, in combinations ETZ fixed at 8 mg/L): 0.5 µg/mL
- MIC ([1]; Acinetobacter pittii, isolate NO-Ab145, Acinetobacter pittii, in combinations ETZ fixed at 8 mg/L): 1 µg/mL
- MIC ([1]; Acinetobacter pittii, isolate NO-Ab151, Acinetobacter pittii, in combinations ETZ fixed at 8 mg/L): 2 µg/mL
- MIC ([1]; Acinetobacter pittii, isolate NO-Ab154, Acinetobacter pittii, in combinations ETZ fixed at 8 mg/L): 0.5 µg/mL
- MIC ([1]; Acinetobacter pittii, isolate NO-Ab157, Acinetobacter pittii, in combinations ETZ fixed at 8 mg/L): 1 µg/mL
- MIC ([1]; Acinetobacter pittii, isolate NO-Ab162, Acinetobacter pittii, in combinations ETZ fixed at 8 mg/L): 0.5 µg/mL
- MIC ([1]; Acinetobacter pittii, isolate NO-Ab164, Acinetobacter pittii, in combinations ETZ fixed at 8 mg/L): 0.5 µg/mL
- MIC ([1]; Acinetobacter pittii, isolate NO-Ab178, Acinetobacter pittii, in combinations ETZ fixed at 8 mg/L): 0.5 µg/mL
- MIC ([1]; Acinetobacter pittii, isolate NO-Ab197, Acinetobacter pittii, in combinations ETZ fixed at 8 mg/L): 0.5 µg/mL
- MIC ([1]; Acinetobacter proteolyticus, isolate NO-Ab99, Acinetobacter proteolyticus, in combinations ETZ fixed at 8 mg/L): 1 µg/mL
- MIC ([1]; Acinetobacter proteolyticus, isolate NO-Ab102, Acinetobacter proteolyticus, in combinations ETZ fixed at 8 mg/L): 1 µg/mL
- MIC ([1]; Acinetobacter proteolyticus, isolate NO-Ab210, Acinetobacter proteolyticus, in combinations ETZ fixed at 8 mg/L): 0.25 µg/mL
- MIC ([1]; Acinetobacter radioresistens, isolate NO-Ab175, Acinetobacter radioresistens, in combinations ETZ fixed at 8 mg/L): 1 µg/mL
- MIC ([1]; Acinetobacter radioresistens, isolate NO-Ab215, Acinetobacter radioresistens, in combinations ETZ fixed at 8 mg/L): 0.25 µg/mL
- MIC ([1]; Acinetobacter ursingii, isolate NO-Ab3, Acinetobacter ursingii, in combinations ETZ fixed at 8 mg/L): 0.25 µg/mL
- MIC ([1]; Acinetobacter ursingii, isolate NO-Ab64, Acinetobacter ursingii, in combinations ETZ fixed at 8 mg/L): 1 µg/mL
- MIC ([1]; Acinetobacter ursingii, isolate NO-Ab87, Acinetobacter ursingii, in combinations ETZ fixed at 8 mg/L): 0.12 µg/mL
- MIC ([1]; Acinetobacter ursingii, isolate NO-Ab103, Acinetobacter ursingii, in combinations ETZ fixed at 8 mg/L): 0.5 µg/mL
- MIC ([1]; Acinetobacter ursingii, isolate NO-Ab119, Acinetobacter ursingii, in combinations ETZ fixed at 8 mg/L): 0.5 µg/mL
- MIC ([1]; Acinetobacter ursingii, isolate NO-Ab120, Acinetobacter ursingii, in combinations ETZ fixed at 8 mg/L): 0.5 µg/mL
- MIC ([1]; Acinetobacter ursingii, isolate NO-Ab123, Acinetobacter ursingii, in combinations ETZ fixed at 8 mg/L): 2 µg/mL
- MIC ([1]; Acinetobacter ursingii, isolate NO-Ab126, Acinetobacter ursingii, in combinations ETZ fixed at 8 mg/L): 1 µg/mL
- MIC ([1]; Acinetobacter ursingii, isolate NO-Ab147, Acinetobacter ursingii, in combinations ETZ fixed at 8 mg/L): 2 µg/mL
- MIC ([1]; Acinetobacter ursingii, isolate NO-Ab155, Acinetobacter ursingii, in combinations ETZ fixed at 8 mg/L): 1 µg/mL
- MIC ([1]; Acinetobacter ursingii, isolate NO-Ab165, Acinetobacter ursingii, in combinations ETZ fixed at 8 mg/L): 1 µg/mL
- MIC ([1]; Acinetobacter ursingii, isolate NO-Ab166, Acinetobacter ursingii, in combinations ETZ fixed at 8 mg/L): 0.25 µg/mL
- MIC ([1]; Acinetobacter ursingii, isolate NO-Ab214, Acinetobacter ursingii, in combinations ETZ fixed at 8 mg/L): ≤ 0.06 µg/mL
- MIC ([1]; Acinetobacter ursingii, isolate NO-Ab221, Acinetobacter ursingii, in combinations ETZ fixed at 8 mg/L): 0.5 µg/mL
- MIC ([1]; Acinetobacter ursingii, isolate NO-Ab222, Acinetobacter ursingii, in combinations ETZ fixed at 8 mg/L): 0.5 µg/mL
- MIC ([1]; Acinetobacter, MBC set, isolate NO-Ab84, A. bereziniae): 1 µg/mL (≈ 4.29 µM)
- MIC ([1]; Acinetobacter, MBC set, isolate NO-Ab88, A. dijkshoorniae): 0.5 µg/mL (≈ 2.14 µM)
- MIC ([1]; Acinetobacter, isolate NO-Ab146, Acinetobacter iwoffii, in combinations ETZ fixed at 8 mg/L): 2 µg/mL
- MIC ([1]; Acinetobacter, isolate NO-Ab159, Acinetobacter iwoffii, in combinations ETZ fixed at 8 mg/L): 0.5 µg/mL
- MIC50 [1, 3]: 1 µg/mL
- MIC90 [1, 3]: 2 µg/mL
- cell morphology [2]: long filaments
